Experimental findings from PMC11079024, “Identification of a family of species-selective complex I inhibitors as potential anthelmintics” (Nature Communications, 2024) are described below.

The target of this assay is C. elegans (N2) complex I (NADH:ubiquinone oxidoreductase) (Caenorhabditis elegans, UniProt P24887+Q93873+Q94360). The assay is described as follows: biochemical. Format: biochemical. In outline: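 Compounds were tested against freeze-thawed isolated mitochondria (0.2 mg/mL protein). NADH:decylubiquinone activity was monitored via DCIP absorbance at 600 nm, and the initial linear slope was normalised to solvent controls.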

The IC50 is the point on the concentration scale where inhibition reaches its midpoint.

Values joined by “and” are separate entries in the source; they are usually repeats but may differ in a detail not shown here. Identical values can stand only once. Like-named read-outs stand apart in the source and are kept apart here.

Chain of C. elegans (N2) complex I (NADH:ubiquinone oxidoreductase) (Q94360 17-199): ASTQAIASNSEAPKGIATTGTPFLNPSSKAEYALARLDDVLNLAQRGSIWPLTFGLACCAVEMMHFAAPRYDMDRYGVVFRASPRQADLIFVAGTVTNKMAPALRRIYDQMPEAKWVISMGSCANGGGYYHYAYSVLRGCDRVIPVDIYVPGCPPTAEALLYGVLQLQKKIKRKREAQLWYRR
Chain of C. elegans (N2) complex I (NADH:ubiquinone oxidoreductase) (P24887 whole entry): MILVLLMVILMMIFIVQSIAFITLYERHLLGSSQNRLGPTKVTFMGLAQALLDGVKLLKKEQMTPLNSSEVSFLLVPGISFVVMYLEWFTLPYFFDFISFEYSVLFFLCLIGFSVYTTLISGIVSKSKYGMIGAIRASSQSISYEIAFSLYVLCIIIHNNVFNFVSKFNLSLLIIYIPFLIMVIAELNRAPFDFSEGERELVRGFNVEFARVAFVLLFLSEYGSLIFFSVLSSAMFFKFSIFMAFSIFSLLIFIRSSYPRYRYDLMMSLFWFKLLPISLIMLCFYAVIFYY
Chain of C. elegans (N2) complex I (NADH:ubiquinone oxidoreductase) (Q93873 31-482): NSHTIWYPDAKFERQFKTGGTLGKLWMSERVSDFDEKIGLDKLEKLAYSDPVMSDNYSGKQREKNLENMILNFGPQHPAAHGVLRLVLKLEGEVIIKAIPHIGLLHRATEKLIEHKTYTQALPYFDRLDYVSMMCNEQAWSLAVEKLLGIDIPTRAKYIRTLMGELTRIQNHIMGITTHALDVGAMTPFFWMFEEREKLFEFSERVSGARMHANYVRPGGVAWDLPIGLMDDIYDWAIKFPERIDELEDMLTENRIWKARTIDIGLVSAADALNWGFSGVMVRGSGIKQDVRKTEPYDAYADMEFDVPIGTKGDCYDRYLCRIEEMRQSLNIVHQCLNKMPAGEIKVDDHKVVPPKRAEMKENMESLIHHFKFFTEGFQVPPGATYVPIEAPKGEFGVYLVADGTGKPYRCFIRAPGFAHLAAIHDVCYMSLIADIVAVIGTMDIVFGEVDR

Take `Cc1ccc(CSCc2nc3ccccc3[nH]2)cc1` [Compound 7121781]: the activity at 0.0001 µM (Dose 0.0001 µM, read-out: C. elegans mitochondrial complex I activity) was 100%. In addition, the activity at 0.0005 µM (Dose 0.0005 µM, read-out: C. elegans mitochondrial complex I activity) was 95.4%. The activity at 0.001 µM (Dose 0.001 µM, read-out: C. elegans mitochondrial complex I activity) is 94.3%. Also, under “Dose 0.0025 µM, read-out: C. elegans mitochondrial complex I activity”, the activity at 0.0025 µM was determined as 98%. The activity at 0.005 µM (Dose 0.005 µM, read-out: C. elegans mitochondrial complex I activity) amounted to 98.1%. Further, where the note is “Dose 0.013 µM, read-out: C. elegans mitochondrial complex I activity”, the activity at 0.013 µM amounted to 104%. Also, the activity at 0.025 µM (Dose 0.025 µM, read-out: C. elegans mitochondrial complex I activity) came out at 99.3%. Under “Dose 0.063 µM, read-out: C. elegans mitochondrial complex I activity”, the activity at 0.063 µM was 89.7%. Moreover, the activity at 0.125 µM (Dose 0.125 µM, read-out: C. elegans mitochondrial complex I activity) turned out to be 95.8%. In addition, the activity at 0.313 µM (Dose 0.313 µM, read-out: C. elegans mitochondrial complex I activity) stood at 87.2%. Moreover, the activity at 0.625 µM (Dose 0.625 µM, read-out: C. elegans mitochondrial complex I activity) was found to be 99.9%. In addition, the activity at 1.5 µM (Dose 1.5 µM, read-out: C. elegans mitochondrial complex I activity) is 94%. In addition, where the note is “Dose 3 µM, read-out: C. elegans mitochondrial complex I activity”, the activity at 3 µM came to 73.4%. Moreover, the activity at 15 µM (Dose 15 µM, read-out: C. elegans mitochondrial complex I activity) was 71.1%. Also, the activity at 37.5 µM (Dose 37.5 µM, read-out: C. elegans mitochondrial complex I activity) was determined as 43.5%. In addition, the activity at 75 µM (Dose 75 µM, read-out: C. elegans mitochondrial complex I activity) was 23.3%. The 50% inhibitory concentration (IC50) (in vitro complex I dose response on C. elegans mitochondria, average of at least two biological replicates, fit in R (DRC), read-out: IC50 C. elegans complex I) came out at 28.5 µM and the IC50 (wild-type C. elegans mitochondria, read-out: C. elegans Complex I IC50) worked out at 28.5 µM. Also, the “Log IC50 C. elegans complex I” value (log10 of IC50 in µM, C. elegans mitochondria) was found to be 1.46 µM.
Turning to `COC(=O)Nc1nc2ccc(C(=O)c3ccccc3)cc2[nH]1` [mebendazole, reference compound], the remaining activity at 0.125 µM (0.125 µM, wild-type C. elegans mitochondria, mean of replicates, read-out: percent (%) in vitro complex I activity relative to solvent control) worked out at 104%. Moreover, the “percent (%) in vitro complex I activity relative to solvent control” value reads like this: (0.125 µM, wild-type C. elegans mitochondria, single replicate) 95.514% and 94.187% and 106.525% and 121.019%; (0.313 µM, wild-type C. elegans mitochondria, single replicate) 96.314% and 108.975% and 110.715%; (0.625 µM, wild-type C. elegans mitochondria, single replicate) 110.023% and 108.944%; (1.5 µM, wild-type C. elegans mitochondria, single replicate) 91.749% and 101.813% and 107.753%; (3 µM, wild-type C. elegans mitochondria, single replicate) 97.513% and 112.361% and 102.837%; (15 µM, wild-type C. elegans mitochondria, single replicate) 94.944% and 106.604% and 105.394%. Also, the “percent (%) in vitro complex I activity relative to solvent control” value by setting is: (37.5 µM, wild-type C. elegans mitochondria, single replicate) 90.732% and 104.066% and 100.084%; (75 µM, wild-type C. elegans mitochondria, single replicate) 90.802% and 93.867% and 91.631%. In addition, the remaining activity at 0.313 µM worked out at 102% (0.313 µM, wild-type C. elegans mitochondria, mean of replicates, read-out: percent (%) in vitro complex I activity relative to solvent control) and 92.7% (0.313 µM, wild-type C. elegans mitochondria, single replicate, read-out: percent (%) in vitro complex I activity relative to solvent control). Also, the remaining activity at 0.625 µM stood at 105% (0.625 µM, wild-type C. elegans mitochondria, mean of replicates, read-out: percent (%) in vitro complex I activity relative to solvent control) and 100% (0.625 µM, wild-type C. elegans mitochondria, single replicate, read-out: percent (%) in vitro complex I activity relative to solvent control). In addition, the remaining activity at 1.5 µM (1.5 µM, wild-type C. elegans mitochondria, mean of replicates, read-out: percent (%) in vitro complex I activity relative to solvent control) amounted to 101% and the remaining activity at 1.5 µM (1.5 µM, wild-type C. elegans mitochondria, single replicate, read-out: percent (%) in vitro complex I activity relative to solvent control) is 101%. Further, the remaining activity at 3 µM is 104% (3 µM, wild-type C. elegans mitochondria, mean of replicates, read-out: percent (%) in vitro complex I activity relative to solvent control) and 104% (3 µM, wild-type C. elegans mitochondria, single replicate, read-out: percent (%) in vitro complex I activity relative to solvent control). In addition, the remaining activity at 15 µM runs as follows: (15 µM, wild-type C. elegans mitochondria, mean of replicates, read-out: percent (%) in vitro complex I activity relative to solvent control) 102%; (15 µM, wild-type C. elegans mitochondria, single replicate, read-out: percent (%) in vitro complex I activity relative to solvent control) 102%. The remaining activity at 37.5 µM by setting is: (37.5 µM, wild-type C. elegans mitochondria, mean of replicates, read-out: percent (%) in vitro complex I activity relative to solvent control) 97.7%; (37.5 µM, wild-type C. elegans mitochondria, single replicate, read-out: percent (%) in vitro complex I activity relative to solvent control) 95.9%. The remaining activity at 75 µM is, setting by setting: (75 µM, wild-type C. elegans mitochondria, mean of replicates, read-out: percent (%) in vitro complex I activity relative to solvent control) 91.3%; (75 µM, wild-type C. elegans mitochondria, single replicate, read-out: percent (%) in vitro complex I activity relative to solvent control) 88.8%.
